From patent US7166612B2, “Methods for reducing platelet activation platelet aggregaton or thrombosis” (Beth Israel Deaconess Medical Center, priority 2001, dated 2007) come the findings set out here.

The subject of assay [1] is PGE1-induced cAMP levels in platelets. Description: augmentation of PGE1-induced cAMP levels in platelets. Format: cell-based, human. To be noted: in words. As for the experimental part:
(A) Compound was tested for its ability to inhibit SFLLR-, U46619-, ADP-, PMA-, and collagen I-induced platelet α-granule secretion. (B) The effect of the compound on PGE1-stimulated cAMP elevation was analyzed. Platelets were incubated with increasing doses of pyridazinone compound for 30 minutes prior to the 2 minute incubation with PGE1. Platelets were subsequently lysed and cAMP level was assayed using a commercially available ELISA kit (Liao et al., 1998, Eur J Pharmacol 349, 107–14). […] Error bars represent mean ±1 SD (n=4), *P<0.001.
One frequent target of anti-platelet agents is phosphodiesterase III (PDE III). […] The assay is performed as described by Liao et al., 1998, Eur J Pharmacol 349,107–114, incorporated herein by reference. Briefly, aliquots of PRP are exposed to increasing concentrations of the agent for 20 minutes. The PRP is then challenged with 1 μM PGE1 for 2 min The reaction is stopped by adding 10 mM EDTA, followed immediately by boiling for 2 min. The mixture is cooled to 4° C. and the precipitated protein is pelleted. cAMP content in the supernatant is quantitated using an enzyme immunoassay kit (Pharmacia-Amersham, NJ) according to the instructions of the manufacturer.
In order to assess whether the compounds useful according to the invention might act through inhibition phosphodiesterase III, each was tested for its effect on PGE1-induced cAMP increase. Determination of platelet cAMP levels was performed as described by Liao et al., 1998, supra. Aliquots of PRP were exposed to increasing concentrations of the indicated compounds for 20 min. PRP was then challenged with 1 μM PGE1 for 2 min. The reaction was stopped with the addition of 10 mM EDTA followed immediately by boiling for 2 min. The mixture was then cooled to 4° C. and the precipitated protein was pelleted. Cyclic AMP content in the supernatant was then quantified using an enzyme immunoassay kit (Pharmacia-Amersham, NJ) according to the instructions of the manufacturer.
A general note: Cyclic AMP is a second messenger, typically raised through Gs and lowered through Gi signalling.

For assay [2], the target named is T1, human platelet PDE3 (Homo sapiens, UniProt Q14432).
T1 construct: from tissue; host or cells: human platelets
T1 sequence (Q14432 whole entry): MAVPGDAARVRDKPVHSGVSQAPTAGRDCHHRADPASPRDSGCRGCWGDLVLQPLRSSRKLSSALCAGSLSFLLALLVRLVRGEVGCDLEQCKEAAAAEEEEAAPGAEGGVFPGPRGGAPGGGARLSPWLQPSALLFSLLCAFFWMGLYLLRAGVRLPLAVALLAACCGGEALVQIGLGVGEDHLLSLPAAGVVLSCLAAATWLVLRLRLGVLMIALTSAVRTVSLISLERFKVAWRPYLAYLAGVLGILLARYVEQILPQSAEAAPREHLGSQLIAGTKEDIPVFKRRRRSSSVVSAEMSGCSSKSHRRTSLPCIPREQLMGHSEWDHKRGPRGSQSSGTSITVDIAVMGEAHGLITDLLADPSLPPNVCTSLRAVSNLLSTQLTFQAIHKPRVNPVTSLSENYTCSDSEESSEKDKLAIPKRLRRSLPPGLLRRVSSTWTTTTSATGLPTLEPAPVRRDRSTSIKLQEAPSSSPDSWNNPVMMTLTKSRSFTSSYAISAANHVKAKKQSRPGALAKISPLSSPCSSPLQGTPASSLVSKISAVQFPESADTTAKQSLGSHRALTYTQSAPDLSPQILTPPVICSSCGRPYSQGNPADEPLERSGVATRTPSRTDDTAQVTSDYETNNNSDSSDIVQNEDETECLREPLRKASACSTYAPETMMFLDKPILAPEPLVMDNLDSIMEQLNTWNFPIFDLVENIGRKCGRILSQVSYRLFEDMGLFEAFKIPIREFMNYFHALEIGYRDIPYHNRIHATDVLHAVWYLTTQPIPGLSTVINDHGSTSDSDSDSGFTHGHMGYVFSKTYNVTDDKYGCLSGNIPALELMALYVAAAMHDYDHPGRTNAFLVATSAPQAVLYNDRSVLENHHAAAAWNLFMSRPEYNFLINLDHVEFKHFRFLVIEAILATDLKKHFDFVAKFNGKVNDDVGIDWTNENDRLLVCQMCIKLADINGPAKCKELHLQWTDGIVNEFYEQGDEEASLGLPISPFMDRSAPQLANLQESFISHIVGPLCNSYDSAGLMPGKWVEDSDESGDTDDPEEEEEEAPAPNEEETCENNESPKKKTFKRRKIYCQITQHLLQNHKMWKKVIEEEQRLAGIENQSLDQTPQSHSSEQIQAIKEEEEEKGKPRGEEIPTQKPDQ
Description: phosphodiesterase inhibition, PDE3. Format: biochemical. As for the experimental part: Intracellular cAMP generated by adenylyl cyclase in platelets is actively hydrolyzed by phosphodiesterase. […] Human platelets express PDE2, PDE3, and PDE5. Therefore, the compound was tested for its inhibitory effect on these phosphodiesterases using methods as described in Example 3.

Assay [3] has as its system thromboemboli from laser-induced thrombi. Description: thromboembolization from laser-induced thrombi (intravital videomicroscopy). Format: in vivo, mouse. As for the experimental part: (A) Thromboembolic events distal from the thrombus were captured using quantitative intravital fluorescence videomicroscopy with high temporal resolution( (111 frames/second) and the total amount of thromboembolization was calculated by determining the total fluorescence intensity of the fluorescently labeled platelets in thromboemboli. (B) Thromboembolization was recorded before infusion of pyridazinone compound. Platelet accumulation into thrombus is indicated by the gray line. Thromboembolism from the same thrombus is measured over time and is indicated by black bars. Each black bar represents a single thromboembolic event of the indicated fluorescent intensity.
Under these conditions, a dynamic thrombus that undergoes continuous cyclic embolization and re-accumulation is observed. The degree of embolization in an untreated mouse can be quantified using software for image analysis, e.g., BioQuant True Color Windows (Biometrics, Nashville, Tenn.), as described in Rosen et al., 2001, supra. […]
Using quantitative intravital fluorescence videomicroscopy with high temporal resolution, thromboemboli were detected and the total amount of fluorescence of the thromboemboli was measured (FIG. 11A). For this analysis, thromboembolus was defined as a platelet aggregate with a fluorescent intensity two standard deviations above the maximum background fluorescence of the arteriole before injury. […]

For orientation: IC50 means the concentration at which inhibition is half-maximal. The low end stands for greater potency, the high end for weaker potency. On to `CC1CC(=O)NN=C1c1ccc(N)c([N+](=O)[O-])c1` (centres unmarked) [6-(4-Amino-3-nitro-phenyl)-5-methyl-4,5-dihydro-2H-pyridazin-3-one], for which the “effect on PGE1-stimulated cAMP levels in platelets” value in assay [1] was “augments PGE1-induced cAMP levels in a dose-dependent manner”; in assay [1] (listed as Pyridazinone compound), “augment PGE1-induced cAMP level increase in platelets in a dose-dependent manner”. In assay [2], the IC50 came out at 15 nM. Moreover, in assay [3] (1.2 mg/kg, in words), the thromboembolization after infusion result is given as “significantly reduced”. Moreover, the reduction of embolization entry in assay [3] (after injection of compound) is on record as “greater than 80%”.
